The values below come from patent US6087379A, “Cyclic amine derivatives” (Sankyo Company, Limited, priority 1996, dated 2000).

One assay relates to male ICR mice. Nature of the assay: Test 1: Prolongation of Bleeding Time in Mice. The class given is in vivo, mouse (ICR). To be noted: oral, 3 days (48, 24 and 4 hours before), ratio test compound-treated to control, cut-off 300 seconds. The procedure: Prolongation of Bleeding Time in Mice Groups of 10 male ICR mice (Charles River Japan Inc.) were used in the experiment. Test compound suspended in 5% gum arabic solution was orally administered for 3 days (48, 24 and 4 hours before the experiment). Each mouse was placed in a retainer, and the tail was transected at 5 mm from the tip, and then the tail (2 cm) was immersed in saline solution warmed at 37° C. Bleeding time was defined as the interval between the time of transection until bleeding stopped over a 15 seconds period. Bleeding times beyond 5 minutes were recorded as 5 minutes (300 seconds). Results were expressed as ratios of bleeding times of test compound-treated to non-treated (control) groups in which mice received 5% gum arabic solution.

A further assay has as its system platelet aggregation. Nature of the assay: Test 2: Antiaggregatory Action in Rats (ex vivo platelet aggregation in citrated blood, ADP or collagen). To be noted: Rattus norvegicus, oral, 4 hours before, female SD rats, induced by ADP or collagen (which one not given). On the procedure: Antiaggregatory Action in Rats
Groups of 4 female SD rats (Charles River Japan Inc.) were used in the experiment Test compound suspended in 5% gum arabic solution was orally administered to rats 4 hours before the experiment. Control rats received 5% gum farabic solution. Platelet aggregation was measured according to the method of P. Lumley and P. P. A. Humphrey (J. Pharmacol. Methods, 6, 153-166 (1981)) with a slight modification. Blood (5.4 ml) was collected from the abdominal aorta of anesthetized rats using 3.8% (w/v) sodium citrate solution (0.6 ml) as an anticoagulant. An aliquot of citrated blood (1.2 ml) added to the cuvette was stirred (1000 rpm) at 37° C. Two minutes later, blood (0.3 ml) was taken from the cuvette, and the number of platelets was measured by an automatic hematology analyzer (E-4000, Toa Iyo Denshi), which was designated as the pre-aggregation number of platelets. To the remaining blood (0.9 ml) in the cuvette were added 0.1 ml of 0.05 mM adenosine-5'-diphosphate (ADP) or 0.06 mg/ml collagen to induce platelet aggregation. Two minutes after the addition of ADP or 4 minutes after the addition of collagen, blood (0.3 ml) was taken from the cuvette, and the number of platelets was measured, which was designated as the post-aggregation number of platelets. Platelet aggregation (%) was determined by the following equation:
100×(pre-aggregation number of platelets-post-aggregation number of
platelets)/pre-aggregation number of platelets
Antiaggregatory action of the test compound was determined comparing platelet aggregation of test compound-treated rats to that of control rats (without administration of test compound).

The test system of a further assay is Human Platelets. Nature of the assay: Test 3: Antiaggregatory Action in Human Platelets (PRP, ADP-induced aggregation). To be noted: Platelet, 37° C.; for inhibition at 10 µg/mL: 10 μg/ml; for inhibition at 30 µg/mL: 30 μg/ml. It counts as cell-based. The procedure: Antiaggregatory Action in Human Platelets
Platelet aggregation was measured using an automatic platelet aggregometer (PAM-8C, Mebanix) by the method of G.V.R. Born (Nature, 194, 927-929 (1962)) with a slight modification. Blood was collected from the antecubital vein of healthy volunteers who had not taken any medications for 2 weeks using 3.8% sodium citrate as an anticoagulant (1/9 volume of blood). Platelet-rich plasma (PRP) was obtained by centrifugation (CR5DL, Hitachi) at 200×g for 15 minutes at room temperature. Platelet-poor plasma (PPP) was obtained by further centrifugation of the remained blood at 2000×g for 10 minutes at room temperature. The number of platelets in PRP was measured by an automatic hematology analyzer (K-1000, Toa Iyo Denshi), and adjusted to 3×10^8 /ml using PPP. PRP prepared as described above was used for the platelet aggregation experiment. PRP (0.24 ml) was added to the cuvette and set in the platelet aggregometer. After pre-incubation for 1.5 minutes at 37° C., 0.01 ml of 0.25 mM ADP were added to the cuvette to initiate platelet aggregation. Platelet aggregation was monitored for 10 minutes.
Antiaggregatory action of test compound was expressed as inhibition (%) of aggregation comparing platelet aggregation of test compound to that of control (without addition of test compound).

Counter-ions that a name gives are not always drawn.

For the compound `CC(=O)SC1CCN(C(C(=O)C2CC2)c2ccccc2F)CC1` (stereo not drawn) [Example 1(a), 4-Acetylthio-1-(α-cyclopropylcarbonyl-2-fluorobenzyl)piperidine], in the assay with male ICR mice (10 mg/kg), the “bleeding time extending ratio” value was 1.06. The “bleeding time extending ratio” value with male ICR mice (30 mg/kg) is 2.06. In addition, in the assay with platelet aggregation, the inhibition (in general, the relative decrease from the control value, in per cent) at 10 mg/kg stood at 5.7% and the inhibition at 30 mg/kg amounted to 23.3%.

With `Cl.O=C(C1CC1)C(c1ccccc1F)N1CCC(S)CC1` (stereo not drawn) [Example 1(b), 1-(α-Cyclopropylcarbonyl-2-fluorobenzyl)-4-mercaptopiperidine hydrochloride], the “bleeding time extending ratio” value in the assay with male ICR mice (30 mg/kg) turned out to be 1.46. In the assay with Human Platelets, this compound displayed an inhibition at 10 µg/mL of 48.6% and an inhibition at 30 µg/mL of 70.6%.

As to `CCOC(=O)/C=C1\CN(C(C(=O)C2CC2)c2ccccc2F)CCC1SC(C)=O` (stereo not drawn) [Example 10(a), (E)-4-Acetylthio-1-(α-cyclopropylcarbonyl-2-fluorobenzyl)-3-ethoxycarbonylmethylidenepiperidine], the “bleeding time extending ratio” value in the assay on male ICR mice (10 mg/kg) is reported as over 2.75. Besides, the “bleeding time extending ratio” value with male ICR mice (30 mg/kg) is on record as over 2.75. In the assay with platelet aggregation, the inhibition at 10 mg/kg is 88.6% and the inhibition at 30 mg/kg is 97.2%.

For the compound `O=C(O)/C=C1/CN(C(C(=O)C2CC2)c2ccccc2F)CCC1S` (stereo not drawn) [Example 12, (Z)-1-(α-Cyclopropylcarbonyl-2-fluorobenzyl)-3-carboxymethylidene-4-mercaptopiperidine trifluoroacetate], in the assay with Human Platelets, 10 µg/mL produced 41.2% inhibition and the inhibition at 30 µg/mL was determined as 68.9%.

As to `CCOC(=O)/C=C1\CN(C(C(=O)OC)c2ccccc2Cl)CCC1SC(C)=O` (stereo not drawn) [Example 13, (E)-4-Acetylthio-1-(2-chloro-α-methoxycarbonylbenzyl)-3-ethoxycarbonylmethylidenepiperidine], the “bleeding time extending ratio” value with male ICR mice (10 mg/kg) and in the assay on male ICR mice (30 mg/kg) was over 2.75 throughout.

Take `CC(=O)SC1CCN(C(C(=O)C2CC2)c2ccccc2F)C/C1=C\C(=O)N(C)C` (stereo not drawn) [Example 15(a), (E)-4-Acetylthio-1-(α-cyclopropylcarbonyl-2-fluorobenzyl)-3-(N,N-dimethylcarbamoyl)methylidenepiperidine]: the “bleeding time extending ratio” value is recorded as 2.53 in the assay on male ICR mice (10 mg/kg) and over 2.75 with male ICR mice (30 mg/kg). The inhibition at 10 mg/kg in the assay on platelet aggregation worked out at 18.6%. The compound further came in with an inhibition at 30 mg/kg in the assay on platelet aggregation of 95.9%.

For `CCCC(=O)SC1CCN(C(C(=O)C2CC2)c2ccccc2F)CC1` (stereo not drawn) [Example 18, 4-Butyrylthio-1-(α-cyclopropylcarbonyl-2-fluorobenzyl)piperidine], the “bleeding time extending ratio” value with male ICR mice (10 mg/kg) is reported as 1.45; in the assay on male ICR mice (30 mg/kg), 2.57. In the assay with platelet aggregation, at 30 mg/kg the inhibition was 18.3%.

Regarding `COC(=O)C(c1ccccc1F)N1CCC(SC(=O)c2ccccc2)CC1` (stereo not drawn) [Example 28, 4-Benzoylthio-1-(2-fluoro-α-methoxycarbonylbenzyl)piperidine], the “bleeding time extending ratio” value came to 1.24 in the assay with male ICR mice (10 mg/kg) and 2.16 in the assay on male ICR mice (30 mg/kg). The inhibition at 30 mg/kg with platelet aggregation was 39.6%.
